Results as given in PubChem BioAssay (NCI).
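1) Cells in 96-well plates. 2) Compound, 48 h, 5 concentrations. 3) Linear interpolation between surrounding doses. 4) Unreached endpoint = highest concentration. Here, GI50 denotes the concentration required for 50% inhibition of growth. TGI: concentration producing complete growth inhibition.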

Columns and labels:
Experiment in all cases: DTP human tumour cell line panel, 48 h
A549 NSCLC = test system: A549 NSCLC
LOX IMVI melanoma = test system: LOX IMVI melanoma
KM12 colon = test system: KM12 colon
ACHN renal = test system: ACHN renal
PC-3 prostate = test system: PC-3 prostate
OVCAR-8 ovarian = test system: OVCAR-8 ovarian
HS 578T breast = test system: HS 578T breast
BT-549 breast = test system: BT-549 breast
DU-145 prostate = test system: DU-145 prostate
MALME-3M melanoma = test system: MALME-3M melanoma
SF-268 CNS = test system: SF-268 CNS
MCF7 breast = test system: MCF7 breast
SK-MEL-5 melanoma = test system: SK-MEL-5 melanoma
HCT-15 colon = test system: HCT-15 colon
UACC-62 melanoma = test system: UACC-62 melanoma
NCI-H23 lung = test system: NCI-H23 lung
OVCAR-3 ovarian = test system: OVCAR-3 ovarian
OVCAR-4 ovarian = test system: OVCAR-4 ovarian
HOP-62 NSCLC = test system: HOP-62 NSCLC
SR leukemia = test system: SR leukemia
SF-539 CNS = test system: SF-539 CNS
SN12C renal = test system: SN12C renal
CCRF-CEM leukemia = test system: CCRF-CEM leukemia
NCI-H460 lung = test system: NCI-H460 lung
SK-MEL-2 melanoma = test system: SK-MEL-2 melanoma
IGROV1 ovarian = test system: IGROV1 ovarian
SK-OV-3 ovarian = test system: SK-OV-3 ovarian
OVCAR-5 ovarian = test system: OVCAR-5 ovarian

## COc1cccc(C2C3=C(COC3=O)N(CCO)c3cc(OC)ccc32)c1 (stereo unspecified)
A549 NSCLC
  GI50: 120 nM
  TGI: > 100000 nM
LOX IMVI melanoma
  GI50: 227 nM
  TGI: > 100000 nM
KM12 colon
  GI50: 54.3 nM
ACHN renal
  GI50: 230 nM
  TGI: > 100000 nM
PC-3 prostate
  GI50: 89.8 nM
  TGI: > 100000 nM
OVCAR-8 ovarian
  GI50: 206 nM
  TGI: > 100000 nM
HS 578T breast
  GI50: 188 nM
  TGI: > 80800 nM
BT-549 breast
  GI50: 295 nM
  TGI: > 28500 nM
DU-145 prostate
  GI50: 139 nM
  TGI: 1910 nM
MALME-3M melanoma
  GI50: 78.6 nM
  TGI: > 100000 nM
SF-268 CNS
  GI50: 181 nM
  TGI: > 100000 nM
MCF7 breast
  GI50: 34.8 nM
  TGI: > 100000 nM
SK-MEL-5 melanoma
  GI50: 47.4 nM
  TGI: 1970 nM
HCT-15 colon
  GI50: 121 nM
  TGI: > 100000 nM
UACC-62 melanoma
  GI50: 48.8 nM
  TGI: > 100000 nM
NCI-H23 lung
  GI50: 172 nM
  TGI: > 100000 nM
OVCAR-3 ovarian
  GI50: 34.7 nM
  TGI: 166 nM
OVCAR-4 ovarian
  GI50: 153 nM
  TGI: > 100000 nM
HOP-62 NSCLC
  GI50: 124 nM
  TGI: > 100000 nM
SR leukemia
  GI50: 49.3 nM
  TGI: > 100000 nM
SF-539 CNS
  GI50: 87.8 nM
SN12C renal
  GI50: 493 nM
  TGI: > 100000 nM
CCRF-CEM leukemia
  GI50: 204 nM
  TGI: > 100000 nM
NCI-H460 lung
  GI50: 90.6 nM
SK-MEL-2 melanoma
  GI50: 536 nM
IGROV1 ovarian
  GI50: 305 nM
  TGI: > 100000 nM
SK-OV-3 ovarian
  GI50: 109 nM
OVCAR-5 ovarian
  GI50: 442 nM
  TGI: > 100000 nM
